Type in all cases: functional
Experiment [1] has as its system Mus musculus. Put plainly: Compound was tested for the colony forming units of C. Albicans in mice at a dose of 25 mg/kg expressed as geometric mean.
Experiment [2] relates to Mus musculus. Put plainly: Compound was tested for the colony forming units of C. Albicans in mice at a dose of 50 mg/kg expressed as geometric mean.
The species named for experiment [3] is Mus musculus. Nature of the experiment: Compound was tested for the oral activity in CF-1 mice infected with C. Albicans in eagles essential medium at pH 7.0 duration of 48 h. Details: unit not given here.
The species named for experiment [4] is Mus musculus. Nature of the experiment: Compound was tested for the oral activity in CF-1 mice infected with Aspergillus flavus by sabouraud dextrose broth of pH 5.7 duration of 72 h. Details: unit not given here.
Experiment [5] has as its system Mus musculus. Put plainly: Compound was tested for the oral activity in CF-1 mice infected with Aspergillus flavus at a dose of 100 mg/kg of 4 days post infection. Conditions: for Survival: 100 mg/kg; for survival at 100 mg/kg: Mus musculus, po, 96 h.
The subject of experiment [6] is Mus musculus. Nature of the experiment: Compound was tested for the oral activity in CF-1 mice infected with Aspergillus flavus at a dose of 66 mg/kg of 4 days post infection. To be noted: for Survival: 66 mg/kg; for survival at 66 mg/kg: Mus musculus, po, 96 h.
Experiment [7] concerns Mus musculus. Nature of the experiment: Compound was tested for the oral activity in CF-1 mice infected with C. Albicans at a dose of 25 mg/kg of 4 days post infection. Conditions: for Survival: 25 mg/kg; for survival at 25 mg/kg: Mus musculus, po, 96 h.
Experiment [8] relates to Mus musculus. Nature of the experiment: Compound was tested for the oral activity in CF-1 mice infected with C. Albicans at a dose of 50 mg/kg of 4 days post infection. Conditions: for Survival: 50 mg/kg; for survival at 50 mg/kg: Mus musculus, po, 96 h.
Experiment [9] has as its system Mus musculus. Nature of the experiment: Compound was tested for the colony forming units of Aspergillus flavus in mice at a dose of 100 mg/kg expressed as geometric mean.
Experiment [10] has as its system Mus musculus. Put plainly: Compound was tested for the colony forming units of Aspergillus flavus in mice at a dose of 66 mg/kg expressed as geometric mean.
Experiment [11] concerns Mus musculus. Put plainly: Compound was tested for the colony forming units of C. Albicans in mice at a dose of 10 mg/kg expressed as geometric mean.
Experiment [12] concerns Mus musculus. Put plainly: Compound was tested for the oral activity in CF-1 mice infected with C. Albicans at a dose of 10 mg/kg of 4 days post infection.

Each structure is given as a SMILES string. Values joined by “and” are separate entries in the source; they are usually repeats but may differ in a detail not shown here. Equal entries are not always repeated.

For `CC[C@@H](C)n1ncn(-c2ccc(N3CCN(c4ccc(OC[C@@H]5COC(Cn6cncn6)(c6ccc(F)cc6F)C5)cc4)CC3)cc2)c1=O` (single isomer, unassigned), the CFU in the experiment with Mus musculus [1] (25 mg/kg) and in the experiment on Mus musculus [2] (50 mg/kg) was 9 each time. The MIC in the experiment filed under Mus musculus [3] is 0.0313; in the experiment listed under Mus musculus [4] it was more than 8. Moreover, the Survival in the experiment with Mus musculus [5] turned out to be 10%; in the experiment on Mus musculus [6] it was 0%; with Mus musculus [7], 0%; with Mus musculus [8] it was 0%.

Regarding `CCC(C)n1ncn(-c2ccc(N3CCN(c4ccc(OC[C@@H]5COC(Cn6cncn6)(c6ccc(F)cc6F)C5)cc4)CC3)cc2)c1=O` (single isomer, unassigned), the CFU with Mus musculus [9] is 1.95; with Mus musculus [10], 2.25; in the experiment with Mus musculus [11] (10 mg/kg), 7.42 and 5.92; in the experiment with Mus musculus [1] (25 mg/kg), 5.14; in the experiment on Mus musculus [2] (50 mg/kg), 4.99. In addition, the MIC was found to be 0.0039 in the experiment listed under Mus musculus [3] and 0.0625 in the experiment listed under Mus musculus [4]. The Survival with Mus musculus [5] was 100%; with Mus musculus [6] it was 50%; in the experiment on Mus musculus [12] (10 mg/kg), 40% and 90%; with Mus musculus [7], 100%; in the experiment with Mus musculus [8], 100%.

As for `CCC(C)n1ncn(-c2ccc(N3CCN(c4ccc(OC[C@@H]5CO[C@@](Cn6cncn6)(c6ccc(Cl)cc6Cl)O5)cc4)CC3)cc2)c1=O` (stereo partly drawn) [ITRACONAZOLE], the CFU in the experiment on Mus musculus [11] was determined as 8.87; in the experiment on Mus musculus [1], 9; in the experiment with Mus musculus [2], 6.68. In addition, the figures for the MIC in the experiment filed under Mus musculus [3] and in the experiment listed under Mus musculus [4] were 0.0078 and 0.125, respectively. Moreover, the survival at 100 mg/kg in the experiment with Mus musculus [5] was 20%. This compound also registered a survival at 66 mg/kg with Mus musculus [6] of 0%. In the experiment on Mus musculus [12] (Mus musculus, po, 96 h), this compound gave a survival at 10 mg/kg of 10%. The compound also registered a survival at 25 mg/kg in the experiment with Mus musculus [7] of 0%. Besides, in the experiment on Mus musculus [8], the survival at 50 mg/kg was determined as 60%.

Take `CCC(C)n1ncn(-c2ccc(N3CCN(c4ccc(OC[C@H]5CO[C@](Cn6cncn6)(c6ccc(F)cc6F)O5)cc4)CC3)cc2)c1=O` (single isomer, unassigned) [SAPERCONAZOLE]: the CFU with Mus musculus [2] (50 mg/kg) was 8.2 and 9. In addition, the values for the MIC in the experiment filed under Mus musculus [3] and in the experiment filed under Mus musculus [4] were 0.0039 and 0.0313, respectively. In the experiment on Mus musculus [5], this compound had a survival at 100 mg/kg of 0%. The Survival in the experiment with Mus musculus [8] is 20% and 0%.

Take `CC[C@H](C)n1ncn(-c2ccc(N3CCN(c4ccc(OC[C@@H]5COC(Cn6cncn6)(c6ccc(F)cc6F)C5)cc4)CC3)cc2)c1=O` (single isomer, unassigned) [SCH-49999]: the results for the CFU in the experiment with Mus musculus [1] and in the experiment on Mus musculus [2] were 9 and 7.84, respectively. Also, the MIC in the experiment filed under Mus musculus [3] is given as 0.0625; in the experiment filed under Mus musculus [4], more than 8. The survival at 100 mg/kg in the experiment on Mus musculus [5] was found to be 20%. The same compound registered a survival at 66 mg/kg in the experiment on Mus musculus [6] of 0%. In the experiment on Mus musculus [7], this compound came in with a survival at 25 mg/kg of 0%. In the experiment with Mus musculus [8], this compound returned a survival at 50 mg/kg of 20%.

(Values after ChEMBL document CHEMBL1127955, “Enantioselective synthesis of the optical isomers of broad-spectrum orally active antifungal azoles, Sch 42538 and Sch 45012” (1994).)
